Data reported in patent US9511134B2, “Inducing immune responses to influenza virus using polypeptide and nucleic acid compositions” (priority 2006, dated 2016).
Where “and” joins values, the source holds several entries; their conditions need not be identical. Equal values may be shown once. Read-outs that look alike come from different tables or passages of the source.

Legend:
DRB1*0405 = DRB1*0405 (Homo sapiens, UniProt P01903+P01911, A100R/A169T/D86S/F76Y/I96L/K127E/L162R/M171V/N62H/P40V/Q125Y/R42H/S133A/S149N/S66Y/V115G/V209L/W38E); assay: biochemical; type: binding; conditions: read-out: IC50 nM to purified HLA DRB1*0405
DRB1*0404 = DRB1*0404 (Homo sapiens, UniProt P01903+P01911, A100R/A169T/F76Y/I96L/K127E/L162R/M171V/N62H/P40V/Q125Y/R42H/S133A/S149N/S66Y/V209L/W38E); assay: biochemical; type: binding
DRB1*1501 = target: T1, DRB1*1501 (Homo sapiens, UniProt P01903+P01911); assay: biochemical; type: binding; conditions: read-out: IC50 nM to purified HLA DRB1*1501
T1 construct: made in house; host or cells: EBV-transformed homozygous human B cell lines, transfected fibroblasts or single-allele 721.221 transfectants

DRB1*0101 = target: T2, DRB1*0101 (Homo sapiens, UniProt P01903+P01911, A100R/D57E/F55L/F60I/F76Y/I96L/L162R/M171V/P40L/Q125E/R42F/V115G/Y59C); assay: biochemical; type: binding
T2 construct: made in house; host or cells: EBV-transformed homozygous human B cell lines, transfected fibroblasts or single-allele 721.221 transfectants

DRB1*0401 = target: T3, DRB1*0401 (Homo sapiens, UniProt P01903+P01911, A100K/A169T/F76Y/I96L/K127E/L162R/M171V/N62H/P40V/Q125Y/R42H/S133A/S149N/S66Y/V115G/V209L/W38E); assay: biochemical; type: binding; conditions: read-out: IC50 nM to purified HLA DRB1*0401
T3 construct: made in house; host or cells: EBV-transformed homozygous human B cell lines, transfected fibroblasts or single-allele 721.221 transfectants

DRB1*1101 = DRB1*1101 (Homo sapiens, UniProt P01903+P01911, A100R/A169T/A87E/I96F/K41T/L162R/M171V/P40S/Q125H/Q178H/Q39Y/Q99D/R42S/S66Y/T262R/V115G/W38E); assay: biochemical; type: binding; conditions: read-out: IC50 nM to purified HLA DRB1*1101
DRB1*0701 = DRB1*0701 (Homo sapiens, UniProt P01903+P01911, A100R/A102G/A103Q/D57E/D86V/E43K/F76Y/K127E/L162R/M171V/P40G/Q125H/Q99D/R33Q/R42Y/R54Q/S133A/S66F/T210M/V115G/Y107V/Y59L/Y89S); assay: biochemical; type: binding
DRB4*0101 = target: T4, DRB4*0101 (Homo sapiens, UniProt P01903+P13762, G164S); assay: biochemical; type: binding; conditions: IC50 nM to purified HLA DRB4*0101
T4 construct: made in house; host or cells: EBV-transformed homozygous human B cell lines, transfected fibroblasts or single-allele 721.221 transfectants

DRB5*0101 = target: T5, DRB5*0101 (Homo sapiens, UniProt P01903+Q30154); assay: biochemical; type: binding
T5 construct: made in house; host or cells: EBV-transformed homozygous human B cell lines, transfected fibroblasts or single-allele 721.221 transfectants

CD4+ PBMC = type: cell-based, human; conditions: IFNγ ELISPOT, PBMC rested five days, CD8-depleted
DRB1*0802 = DRB1*0802 (Homo sapiens, UniProt P01903+P01911, A100R/A103L/A169T/F76Y/H45Y/I96F/K41T/L162R/M171V/P40S/Q125H/Q178H/Q39Y/Q99D/R218S/R42G/S66Y/V115G/W38E); assay: biochemical; type: binding
DRB1*1302 = DRB1*1302 (Homo sapiens, UniProt P01903+P01911, A100E/A169T/K41T/L162R/M171V/P40S/Q125H/Q178H/Q39Y/Q99D/R42S/S66N/T262R/V115G/W38E/Y61H); assay: biochemical; type: binding; conditions: read-out: IC50 nM to purified HLA DRB1*1302
DRB1*0301 = target: T6, DRB1*0301 (Homo sapiens, UniProt P01903+P01911, A100K/A102G/A103R/A169T/F55Y/I96L/K41T/L162R/M171V/P40S/Q125H/Q178H/Q39Y/R42S/S66N/T106N/T262R/W38E/Y61H); assay: biochemical; type: binding
T6 construct: made in house; host or cells: EBV-transformed homozygous human B cell lines, transfected fibroblasts or single-allele 721.221 transfectants

DRB1*0901 = DRB1*0901 (Homo sapiens, UniProt P01903+P01911, A100R/A103E/D57H/D86V/F55Y/F60I/F76Y/I96F/K127E/L162R/M171V/P40D/Q125H/Q99R/R33Q/R42F/S133A/S66N/T210M/V115G/W38K/Y107V/Y59G/Y89S); assay: biochemical; type: binding; conditions: read-out: IC50 nM to purified HLA DRB1*0901
[1] = read-out: IC50 nM to purified HLA DRB1*0404
[2] = read-out: IC50 nM to purified HLA DRB1*0101
[3] = IC50 nM to purified HLA DRB1*0101
[4] = IC50 nM to purified HLA DRB1*0101, Table 4

Sequence of DRB1*1302 (P01903 26-254 limits assumed, other chains not shown): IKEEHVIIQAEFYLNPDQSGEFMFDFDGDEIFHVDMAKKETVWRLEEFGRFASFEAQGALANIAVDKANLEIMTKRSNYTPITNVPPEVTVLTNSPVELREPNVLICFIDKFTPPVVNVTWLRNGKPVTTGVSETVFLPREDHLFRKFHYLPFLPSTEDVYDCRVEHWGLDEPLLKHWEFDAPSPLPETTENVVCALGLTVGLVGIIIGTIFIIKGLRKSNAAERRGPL
Sequence of DRB1*1101 (P01903 26-254 limits assumed, other chains not shown): as above
T6 sequence (P01903 26-254, other chains not shown): as the sequence (P01903 26-254 limits assumed, other chains not shown) above

| SMILES | IC50 (DRB1*0405) | IC50 (DRB1*0404; [1]) | IC50 (DRB1*1501) | IC50 (DRB1*0101; [2]) | IC50 (DRB1*0401) | IC50 (DRB1*1101) | IC50 (DRB1*0101; [3]) | IC50 (DRB1*0101; [4]) | IC50 (DRB1*1302) | IC50 (DRB1*0301) | IC50 (DRB1*0901) | IC50 (DRB1*1501; Table 4) | further results |
| --- | --- | --- | --- | --- | --- | --- | --- | --- | --- | --- | --- | --- | --- |
| CC[C@H](C)[C@H](NC(=O)CNC(=O)[C@@H](NC(=O)[C@@H](NC(=O)[C@H](CO)NC(=O)[C@H](C)NC(=O)[C@H](C)NC(=O)[C@@H](NC(=O)[C@@H](NC(=O)[C@H](CC(C)C)NC(=O)[C@@H]1CCCN1C(=O)[C@@H](N)CC(=O)O)C(C)C)C(C)C)[C@@H](C)CC)[C@@H](C)CC)C(=O)N[C@@H](CC(C)C)C(=O)N[C@@H](Cc1c[nH]cn1)C(=O)N[C@@H](CC(C)C)C(=O)O [Flu.M2.27] | 630 nM | 23 nM | 2200 nM | 78 nM | 92 nM | 1800 nM |  |  |  |  |  |  | IC50 (DRB1*0701; read-out: IC50 nM to purified HLA DRB1*0701): 1300 nM |
| CC[C@H](C)[C@H](N)C(=O)NCC(=O)N[C@@H](CCCNC(=N)N)C(=O)N[C@@H](Cc1ccccc1)C(=O)N[C@@H](Cc1ccc(O)cc1)C(=O)N[C@H](C(=O)N[C@@H](CCC(N)=O)C(=O)N[C@@H](CCSC)C(=O)N[C@@H](CS)C(=O)N[C@H](C(=O)N[C@@H](CCC(=O)O)C(=O)N[C@@H](CC(C)C)C(=O)N[C@@H](CCCCN)C(=O)N[C@@H](CC(C)C)C(=O)N[C@@H](CO)C(=O)O)[C@@H](C)O)[C@@H](C)CC [Flu.NP.39] |  |  |  |  |  | 880 nM | 64 nM and 43 nM | 64 nM | 640 nM |  |  |  | IC50 (DRB4*0101): 990 nM; IC50 (DRB5*0101): 78 nM; Human influenza epitope-specific immune response, donor 3501 (CD4+ PBMC): Positive (Donors were considered positive for a peptide if the number of spots was over 3 times background as determined by responses to irrelevant peptides (non influenza)); IC50 (DRB1*0802): 130 nM |
| CC[C@H](C)[C@H](NC(=O)[C@H](CC(=O)O)NC(=O)[C@H](CCCCN)NC(=O)[C@H](CC(=O)O)NC(=O)[C@H](CCSC)NC(=O)[C@@H](NC(=O)[C@H](C)NC(=O)[C@H](CCC(N)=O)NC(=O)[C@H](CC(=O)O)NC(=O)[C@H](CCSC)NC(=O)[C@H](CCCNC(=N)N)NC(=O)[C@@H](NC(=O)[C@H](CS)NC(=O)[C@H](CC(C)C)NC(=O)[C@@H](N)CO)[C@@H](C)CC)[C@@H](C)CC)C(=O)O [Flu.NS1.117] | 82 nM |  |  |  |  | > 10000 nM |  |  | 53 nM | 58 nM | 6900 nM |  |  |
| CC[C@H](C)[C@H](NC(=O)[C@H](CCC(=O)O)NC(=O)CNC(=O)[C@@H](N)C(C)C)C(=O)N[C@@H](CO)C(=O)N1CCC[C@H]1C(=O)N[C@@H](CC(C)C)C(=O)N1CCC[C@H]1C(=O)N[C@@H](CO)C(=O)N[C@@H](CC(C)C)C(=O)N1CCC[C@H]1C(=O)NCC(=O)N[C@@H](Cc1c[nH]cn1)C(=O)N[C@H](C(=O)N[C@@H](CC(=O)O)C(=O)O)[C@@H](C)O [Flu.NS1.160] |  |  | 38 nM and 28 nM |  | 31 nM and 16 nM | 90 nM | 14 nM and 12 nM | 14 nM | > 10000 nM | > 10000 nM |  | 38 nM | IC50 (DRB1*0404; IC50 nM to purified HLA DRB1*0404): 8.5 nM; IC50 (DRB1*0401; Table 4): 31 nM; IC50 (DRB1*0701): > 10000 nM |
| CC[C@H](C)[C@H](NC(=O)[C@H](CCC(N)=O)NC(=O)[C@H](CCC(=O)O)NC(=O)[C@@H](N)Cc1ccccc1)C(=O)N[C@H](C(=O)N[C@@H](Cc1ccccc1)C(=O)N[C@@H](CCSC)C(=O)N[C@@H](CCC(N)=O)C(=O)N[C@@H](C)C(=O)N[C@@H](CC(C)C)C(=O)N[C@@H](CCC(N)=O)C(=O)N[C@@H](CC(C)C)C(=O)N[C@@H](CC(C)C)C(=O)N[C@@H](CC(C)C)C(=O)N[C@@H](CCC(=O)O)C(=O)O)[C@@H](C)O [Flu.NS2.170] |  | 160 nM | 7 nM and 9.7 nM | 5.3 nM |  |  |  |  | 1080 nM |  | 47 nM | 7 nM | IC50 (DRB1*0101; read-out: IC50 nM to purified HLA DRB1*0101, Table 4): 5.3 nM; IC50 (DRB1*0802; read-out: IC50 nM to purified HLA DRB1*0802): 2700 nM |
